Experimental data from patent EP0550775A1, “Cephalosporin derivatives” (F. HOFFMANN-LA ROCHE AG, priority 1992, dated 1993).
Where a name gives a salt, the structure may show the parent alone. Read-outs that look alike come from different tables or passages of the source. Blank lines part the entries; values can stand above or below the molecule they belong to.

Assays:
Assay type in all cases: cell-based
[1] = system: E. coli ATCC 25922; assay: microbe, parasite or virus in culture
Method: (§1) In vitro activity of the compounds of the present invention was measured by the Minimum Inhibitory Concentration (MIC) in micrograms/ml utilizing the Agar Dilution Method, which is well known in the art, against a variety of gram-negative and gram-positive organisms.

[2] = system: E. coli 257; assay: microbe, parasite or virus in culture; details: agar dilution
Method: as §1

[3] = system: Enter. cloacae P99; assay: microbe, parasite or virus in culture; details: agar dilution
Method: as §1

[4] = system: E. coli TEM-1; assay: microbe, parasite or virus in culture; details: agar dilution
Method: as §1

[5] = system: Prot. mirabilis 90; assay: In vitro MIC, Agar Dilution Method; details: Prot. mirabilis 90, agar dilution
Method: as §1

[6] = system: Prot. vulgaris ATCC 6380; assay: In vitro MIC, Agar Dilution Method
Method: as §1

[7] = system: Ps. aeruginosa ATCC 27853; assay: In vitro MIC, Agar Dilution Method
Method: as §1

[8] = system: Str. pneumoniae 6301; assay: In vitro MIC, Agar Dilution Method; details: Str. pneumoniae 6301, agar dilution
Method: as §1

[9] = system: Staph. aureus 1059B; assay: In vitro MIC, Agar Dilution Method
Method: as §1

[10] = system: K. pneumoniae A; assay: In vitro MIC, Agar Dilution Method; details: K. pneumoniae A, agar dilution
Method: as §1

[11] = system: Cit. freundi BS-16; assay: In vitro MIC, Agar Dilution Method
Method: as §1

[12] = system: Staph. aureus 67; assay: In vitro MIC, Agar Dilution Method; details: Staph. aureus 67, agar dilution
Method: as §1

[13] = system: Ser. marcescens 1071; assay: In vitro MIC, Agar Dilution Method; details: Ser. marcescens 1071, agar dilution
Method: as §1

[14] = system: Prot. vulgaris 1028 BC; assay: In vitro MIC, Agar Dilution Method
Method: as §1

[15] = system: Ps. aeruginosa 8780; assay: In vitro MIC, Agar Dilution Method
Method: as §1

[16] = system: Ps. aeruginosa 18SH; assay: In vitro MIC, Agar Dilution Method
Method: as §1

[17] = system: Str. pyogenes 4; assay: In vitro MIC, Agar Dilution Method; details: Str. pyogenes 4, agar dilution
Method: as §1

[18] = system: Enter. cloacae 5699; assay: In vitro MIC, Agar Dilution Method; details: Enter. cloacae 5699, agar dilution
Method: as §1

[19] = system: Staph. aureus ATCC 29213; assay: In vitro MIC, Agar Dilution Method
Method: as §1

[20] = system: Staph. aureus 753; assay: In vitro MIC, Agar Dilution Method
Method: as §1

[21] = system: Ps. aeruginosa 5712; assay: In vitro MIC, Agar Dilution Method
Method: as §1

[22] = system: Staph. aureus Smith; assay: In vitro MIC, Agar Dilution Method
Method: as §1

[23] = system: Str. faecalis ATCC 29212; assay: In vitro MIC, Agar Dilution Method; details: Str. faecalis ATCC 29212, agar dilution
Method: as §1

[24] = system: Ser. marcescens SM; assay: In vitro MIC, Agar Dilution Method
Method: as §1

[25] = system: Ps. aeruginosa 765; assay: In vitro MIC, Agar Dilution Method
Method: as §1

[26] = Escherichia coli, read-out: MIC
[27] = Enterobacter cloacae, read-out: MIC
[28] = Staphylococcus aureus, read-out: MIC
[29] = Serratia marcescens, read-out: MIC
[30] = Pseudomonas aeruginosa, read-out: MIC

Structure (SMILES): N[C@@H](C(=O)N[C@@H]1C(=O)N2C(C(=O)O)=C(CN3CCN(c4cc5c(cc4F)c(=O)c(C(=O)O)cn5C4CC4)CC3)CS[C@H]12)c1ccccc1 [Compound D, [6R-[6α,7β(R)]]-7-[(Aminophenylacetyl)amino]-3-[[4-(3-carboxy-1-cyclopropyl-6-fluoro-1,4-dihydro-4-oxo-7-quinolinyl)-1-piperazinyl]methyl]-8-oxo-5-thia-1-azabicyclo[4.2.0]oct-2-ene-2-carboxylic acid trifluoroacetic acid salt]
MIC ([1]; Escherichia coli, ATCC25922, agar dilution, read-out: MIC): 31.3 µg/mL
MIC [2, 26]: 31.3 µg/mL
MIC [3, 27]: 31.3 µg/mL
MIC [4, 26]: 31.3 µg/mL
MIC ([5]; Proteus mirabilis, read-out: MIC): 250 µg/mL
MIC ([6]; Proteus vulgaris, ATCC6380, read-out: MIC): 62.5 µg/mL
MIC ([7]; Pseudomonas aeruginosa, ATCC27853, read-out: MIC): 1000 µg/mL
MIC ([8]; Streptococcus pneumoniae, read-out: MIC): 2000 µg/mL
MIC [9, 28]: 1000 µg/mL
MIC ([10]; Klebsiella pneumoniae, read-out: MIC): 31.3 µg/mL
MIC ([11]; read-out: MIC): 62.5 µg/mL
MIC [12, 28]: 2000 µg/mL
MIC [13, 29]: 125 µg/mL
MIC ([14]; Proteus vulgaris, read-out: MIC): 62.5 µg/mL
MIC [15, 30]: 1000 µg/mL
MIC [16, 30]: 1000 µg/mL
MIC ([17]; Streptococcus pyogenes, read-out: MIC): 1000 µg/mL
MIC [18, 27]: 125 µg/mL
MIC ([19]; Staphylococcus aureus, ATCC29213, read-out: MIC): 1000 µg/mL
MIC [20, 28]: 2000 µg/mL
MIC [21, 30]: 4000 µg/mL
MIC [22, 28]: 500 µg/mL
MIC ([23]; Enterococcus faecalis, ATCC29212, read-out: MIC): 4000 µg/mL
MIC [24, 29]: 125 µg/mL
MIC [25, 30]: 2000 µg/mL

MIC ([1]; agar dilution): 500 µg/mL
MIC [2]: 250 µg/mL
MIC [3]: 250 µg/mL
MIC [4]: 500 µg/mL
MIC [5]: 2000 µg/mL
MIC [6]: 250 µg/mL
MIC [7]: 16000 µg/mL
MIC [8]: 250 µg/mL
MIC [9]: 2000 µg/mL
MIC [10]: 1000 µg/mL
MIC [11]: 1000 µg/mL
MIC [12]: 32000 µg/mL
MIC [13]: 2000 µg/mL
MIC [14]: 1000 µg/mL
MIC [15]: 8000 µg/mL
MIC [16]: 4000 µg/mL
MIC [17]: 125 µg/mL
MIC [18]: 1000 µg/mL
MIC [19]: 8000 µg/mL
MIC [20]: 8000 µg/mL
MIC [21]: 32000 µg/mL
MIC [22]: 8000 µg/mL
MIC [23]: 16000 µg/mL
MIC [24]: 1000 µg/mL
MIC [25]: 8000 µg/mL
Structure (SMILES): Nc1nc(/C(=N/OCC(=O)O)C(=O)N[C@@H]2C(=O)N3C(C(=O)[O-])=C(CN4CCN(c5cc6c(cc5F)c(=O)c(C(=O)O)cn6C5CC5)CC4)CS[C@H]23)cs1.[Na+] [Compound B, [6R-[6α,7β(Z)]]-7-[[(2-Amino-4-thiazolyl)[(carboxy-methoxy)imino]acetyl]amino]-3-[[4-(3-carboxy-1-cyclopropyl-6-fluoro-1,4-dihydro-4-oxo-7-quinolinyl)-1-piperazinyl]methyl]-8-oxo-5-thia-1-azabicyclo[4.2.0]oct-2-ene-2-carboxylic acid sodium salt]
